Calls of active or inactive are those of the source. How the calls were made is not given here.
Experiments:
[1] = Inhibition of alpha-glucosidase
[2] = Inhibition of alpha-galactosidase
Further: test concentration or dose not given here.

Row | SMILES | Activity [1] | Activity [2]
1 | O=S(=O)(c1ccc(C(F)(F)F)cc1)N1CCN(c2nc(-c3ccccc3)nc3ccccc23)CC1 | inactive | inactive
2 | O=S(=O)(c1ccc(F)cc1)N1CCN(c2nc(C3CC3)nc3ccccc23)CC1 | inactive | inactive
3 | Cc1ccc(S(=O)(=O)N(C)CCCN(C)c2nc(-c3cccs3)nc3ccccc23)cc1 | inactive | inactive
4 | CCOC(=O)c1ccc(S(=O)(=O)N2CCN(c3nc(-c4ccccc4)nc4ccccc34)CC2)cc1 | inactive | inactive
5 | O=S(=O)(c1ccsc1)N1CCN(c2nc(-c3cccs3)nc3ccccc23)CC1 | inactive | inactive
6 | O=S(=O)(c1ccc2c(c1)OCCO2)N1CCN(c2nc(-c3ccccc3)nc3ccccc23)CC1 | inactive | inactive
7 | O=S(=O)(c1ccc(F)cc1)N1CCN(c2nc(-c3ccccc3)nc3ccccc23)CC1 | inactive | inactive
8 | O=S(=O)(Cc1ccccc1)N1CCN(c2nc(-c3cccs3)nc3ccccc23)CC1 | inactive | inactive
9 | O=S(=O)(c1ccc(Cl)cc1)N1CCN(c2nc(-c3ccccc3)nc3ccccc23)CC1 | inactive | inactive
10 | O=S(=O)(NCCNc1nc(-c2ccco2)nc2ccccc12)c1ccccc1 | inactive | inactive
11 | O=S(=O)(c1ccc2ccccc2c1)N1CCN(c2nc(-c3ccccc3)nc3ccccc23)CC1 | inactive | inactive
12 | Cc1ccc(S(=O)(=O)N2CCN(c3nc(-c4cnccn4)nc4ccccc34)CC2)cc1 | inactive | inactive
13 | CC(=O)c1nc(N2CCN(S(=O)(=O)c3ccc(C)cc3)CC2)c2ccccc2n1 | inactive | inactive
14 | COc1ccc(S(=O)(=O)N2CCN(c3nc(-c4cccs4)nc4ccccc34)CC2)cc1 | inactive | inactive
15 | Cc1ccc(S(=O)(=O)N2CCCN(c3nc(-c4cccs4)nc4ccccc34)CC2)cc1 | inactive | inactive
16 | O=S(=O)(c1ccc2c(c1)CCC2)N1CCN(c2nc(-c3ccccc3)nc3ccccc23)CC1 | inactive | inactive
17 | O=[N+]([O-])c1ccc(S(=O)(=O)N2CCN(c3nc(-c4cccs4)nc4ccccc34)CC2)cc1 | inactive | inactive
18 | Cc1ccc(S(=O)(=O)N2CCN(c3cc(-c4cccs4)nc4ccccc34)CC2)cc1 | inactive | inactive
19 | O=S(=O)(c1ccc(F)cc1)N1CCN(c2nc(-c3cccs3)nc3ccccc23)CC1 | inactive | inactive
20 | N#Cc1cccc(S(=O)(=O)N2CCN(c3nc(-c4cccs4)nc4ccccc34)CC2)c1 | inactive | inactive
21 | Fc1ccccc1N1CCN(c2nc(-c3cccs3)nc3ccccc23)CC1 | inactive | inactive
22 | CC(C)(C)C(=O)OCCNc1nc(-c2cccs2)nc2ccccc12 | inactive | inactive
23 | COc1ccc(-c2nc(N3CCN(S(=O)(=O)c4ccc(C)cc4)CC3)c3ccccc3n2)cc1 | inactive | inactive
24 | CCOc1ccc(S(=O)(=O)N2CCN(c3nc(-c4ccccc4)nc4ccccc34)CC2)cc1OCC | inactive | inactive
25 | CC(C)(C)c1cccc(S(=O)(=O)N2CCN(c3nc(-c4cccs4)nc4ccccc34)CC2)c1 | inactive | inactive

Row | SMILES | Activity [1] | Activity [2]
26 | N#Cc1ccccc1S(=O)(=O)N1CCN(c2nc(-c3ccccc3)nc3ccccc23)CC1 | inactive | inactive
27 | CC(=O)N1CCN(c2nc(-c3cccs3)nc3ccccc23)CC1 | inactive | inactive
28 | O=S(=O)(c1cccnc1)N1CCN(c2nc(-c3cccs3)nc3ccccc23)CC1 | inactive | inactive
29 | CC(=O)c1ccccc1S(=O)(=O)N1CCN(c2nc(-c3cccs3)nc3ccccc23)CC1 | inactive | inactive
30 | O=[N+]([O-])c1cccc(S(=O)(=O)N2CCN(c3nc(-c4cccs4)nc4ccccc34)CC2)c1 | inactive | inactive
31 | CC(C)(C)OC(=O)N1CCN(c2nc(-c3cccs3)nc3ccccc23)CC1 | inactive | inactive
32 | Cc1ccc(S(=O)(=O)N2CCN(c3nc(-c4cccnc4)nc4ccccc34)CC2)cc1 | inactive | inactive
33 | O=C(c1ccccc1)N1CCN(c2nc(-c3cccs3)nc3ccccc23)CC1 | inactive | inactive
34 | CC(=O)c1cccc(S(=O)(=O)N2CCN(c3nc(-c4cccs4)nc4ccccc34)CC2)c1 | inactive | inactive
35 | CN1CCOc2cc(S(=O)(=O)N3CCN(c4nc(-c5cccs5)nc5ccccc45)CC3)ccc21 | inactive | inactive
36 | O=S(=O)(c1ccccc1Cl)N1CCN(c2nc(-c3cccs3)nc3ccccc23)CC1 | inactive | inactive
37 | NS(=O)(=O)c1ccc(S(=O)(=O)N2CCN(c3nc(-c4cccs4)nc4ccccc34)CC2)cc1 | inactive | inactive
38 | COC(=O)c1nc(N2CCN(S(=O)(=O)c3ccc(C)cc3)CC2)c2ccccc2n1 | inactive | inactive
39 | Cc1ccccc1S(=O)(=O)N1CCN(c2nc(-c3cccs3)nc3ccccc23)CC1 | inactive | inactive
40 | O=S(=O)(c1cccs1)N1CCN(c2nc(-c3cccs3)nc3ccccc23)CC1 | inactive | inactive
41 | N#Cc1ccc(S(=O)(=O)N2CCN(c3nc(-c4ccccc4)nc4ccccc34)CC2)cc1 | inactive | inactive
42 | CC(=O)c1ccc(S(=O)(=O)N2CCN(c3nc(-c4ccccc4)nc4ccccc34)CC2)cc1 | inactive | inactive
43 | O=S(=O)(c1ccc2c(c1)CCCC2)N1CCN(c2nc(-c3cccs3)nc3ccccc23)CC1 | inactive | inactive
44 | CC(C)(C)c1ccc(S(=O)(=O)N2CCN(c3nc(-c4cccs4)nc4ccccc34)CC2)cc1 | inactive | inactive
45 | O=S(=O)(c1ccccc1Cl)N1CCN(c2nc(-c3ccccc3)nc3ccccc23)CC1 | inactive | inactive
46 | O=S(=O)(c1cccc(F)c1)N1CCN(c2nc(-c3cccs3)nc3ccccc23)CC1 | inactive | inactive
47 | O=S(=O)(c1ccc(OC(F)(F)F)cc1)N1CCN(c2nc(-c3cccs3)nc3ccccc23)CC1 | inactive | inactive
48 | Cc1ccc(S(=O)(=O)N2CCN(c3nc(-c4ccccc4)nc4ccccc34)CC2)cc1 | inactive | inactive
49 | CCOC(=O)c1ccccc1S(=O)(=O)N1CCN(c2nc(-c3cccs3)nc3ccccc23)CC1 | inactive | inactive

Reference: ChEMBL document CHEMBL1671789, “Evaluation of quinazoline analogues as glucocerebrosidase inhibitors with chaperone activity” (J Med Chem, 2011)
